In the NIST ThermoML archive (doi:10.1021/acs.jced.6b00128):

Details: Liquid, Falling or rolling sphere viscometry

CCCCC(CC)COC(=O)c1ccc(C(=O)OCC(CC)CCCC)c(C(=O)OCC(CC)CCCC)c1 (stereo not drawn) [tris(2-ethylhexyl) trimellitate]
Details	viscosity [mPa·s]
315.1 K, 8710 kPa	92.64
315.1 K, 23090 kPa	125
315.1 K, 36550 kPa	163.5
315.1 K, 69620 kPa	301.3
315.1 K, 71420 kPa	310.8
315.1 K, 104200 kPa	540.6
315.1 K, 138800 kPa	934
347.1 K, 9180 kPa	22.72
347.1 K, 22490 kPa	28.88
347.1 K, 36420 kPa	36.54
347.1 K, 70160 kPa	62.43
347.1 K, 70370 kPa	62.32
347.1 K, 104100 kPa	101.1
347.1 K, 138500 kPa	159.1
347.1 K, 173500 kPa	244.9
347.1 K, 219900 kPa	420.8
387.5 K, 11780 kPa	7.262
387.5 K, 22080 kPa	8.542
387.5 K, 36110 kPa	10.48
387.5 K, 70650 kPa	16.6
387.5 K, 72750 kPa	17.21
387.5 K, 104700 kPa	25.32
387.5 K, 140100 kPa	37.04
387.5 K, 173400 kPa	51.68
387.5 K, 215400 kPa	77.27
428.6 K, 9400 kPa	3.143
428.6 K, 21670 kPa	3.632
428.6 K, 36940 kPa	4.46
428.6 K, 70470 kPa	6.643
428.6 K, 105400 kPa	9.7
428.6 K, 139500 kPa	13.2
428.6 K, 172300 kPa	17.63
428.6 K, 203200 kPa	22.51
428.6 K, 237600 kPa	29.74
477.8 K, 11620 kPa	1.649
477.8 K, 23680 kPa	1.916
477.8 K, 37690 kPa	2.232
477.8 K, 37760 kPa	2.235
477.8 K, 70980 kPa	3.227
477.8 K, 105500 kPa	4.336
477.8 K, 106000 kPa	4.336
477.8 K, 139300 kPa	5.743
477.8 K, 174200 kPa	7.352
477.8 K, 196800 kPa	8.536
477.8 K, 219300 kPa	10.02
477.8 K, 240800 kPa	11.62
527.4 K, 10410 kPa	1.015
527.4 K, 23110 kPa	1.161
527.4 K, 36430 kPa	1.333
527.4 K, 69910 kPa	1.79
527.4 K, 105200 kPa	2.466
527.4 K, 105700 kPa	2.469
527.4 K, 139000 kPa	3.097
527.4 K, 172900 kPa	3.835
527.4 K, 200700 kPa	4.578
527.4 K, 201600 kPa	4.601
527.4 K, 223700 kPa	5.224
527.4 K, 241600 kPa	5.761
